The text below walks through data of publication PMC3785238 (Cell, 2013).

Non-standard residues stand in square brackets, D forms with d. No end group written: not given here. pS = N[C@@H](COP(=O)(O)O)C(=O)O

For one assay, the system named is NMDA receptors. The assay can be described thus: Whole-cell voltage clamp: mGluR5-SIC, NMDA receptor dependence. The assay is classed as cell-based.
Assay [1] deals with mGluR5. The following applies: bath application, 5 μM.
The test system of the next assay is GST-Pin1. The assay is classed as binding. The following applies: mGluR5 expressed in HEK293 cells.
For assay [2], the system named is locomotor activity of mice. As to the kind of experiment: Cocaine locomotion and motor sensitization. It counts as in vivo, mouse.
Assay [3] relates to mGluR5. As to the kind of experiment: mGluR5 phosphorylation and Homer1a expression in mouse striatum. It counts as in vivo.
The next assay concerns Pin1-mGluR5. The assay can be described thus: Pin1 co-immunoprecipitation with mGluR5 from mouse striatum. The assay is classed as in vivo.
The subject of assay [4] is glutamate and dopamine in the nucleus accumbens. The assay can be described thus: In vivo microdialysis: glutamate and dopamine in nucleus accumbens. Also noted: species or system mouse.
Assay [5] has as its system mGluR5-SIC. The assay is classed as cell-based, mouse. The following applies: Homer1−/−Homer2−/−Homer3−/− neurons; for effect of Pin1 peptide on BDNF potentiation of mGluR5-SIC: 0.5 μM in the pipette, n = 5.
Assay [6] concerns the target T1, Homer1a (Rattus norvegicus, UniProt Q9Z214).
T1 sequence (Q9Z214 1-186 isoform Q9Z214-3): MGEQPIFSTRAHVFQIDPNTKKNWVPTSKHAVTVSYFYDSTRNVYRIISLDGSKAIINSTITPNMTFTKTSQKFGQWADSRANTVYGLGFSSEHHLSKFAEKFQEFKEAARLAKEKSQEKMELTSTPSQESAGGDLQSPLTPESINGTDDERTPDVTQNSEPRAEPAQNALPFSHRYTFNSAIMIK
The assay can be described thus: Homer1a induction in cultured striatal neurons. It counts as cell-based. The settings on record: 30 min, 50 mM KCl.

Assay [7] has as its system mGluR5-SIC. As to the kind of experiment: Whole-cell voltage clamp: SKF38393. It counts as cell-based, mouse.
In assay [8] the test system is corticostriatal synapse depotentiation. The assay can be described thus: Field potential recording: depotentiation of corticostriatal LTP. Also noted: species or system mouse. The settings on record: SKF38393 3 μM.
The target of the next assay is Pin1 (Homo sapiens, UniProt Q13526). As to the kind of experiment: 15N ZZ-exchange NMR: Pin1-catalyzed cis/trans isomerization of mGluR5 peptide. It counts as biochemical. The following applies: Homer1a equimolar to peptide; Pin1 sub-stoichiometric (1:10).
The target of assay [9] is T1, Homer1a. The assay can be described thus: ITC of mGluR5 peptide into full length Homer1a. The following applies: versus unphosphorylated peptide. It counts as binding.
Where [10] appears, read: i.p. four times, 10 or 30 mg/kg.
The mark [11] stands for this setting: 20 mg/kg, i.p., mice, n = 6 each group.
Setting [12] is: 10 mg/kg, WT n = 7, Grm5AA/AA n = 9.

Chain of Pin1 (Q13526 whole entry, species assumed): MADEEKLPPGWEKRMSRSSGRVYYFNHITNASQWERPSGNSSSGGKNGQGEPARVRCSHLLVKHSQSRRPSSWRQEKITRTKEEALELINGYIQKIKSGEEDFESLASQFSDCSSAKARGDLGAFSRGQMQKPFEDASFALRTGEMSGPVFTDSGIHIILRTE

Turning to `CC(C(O)c1ccc(O)cc1)N1CCC(Cc2ccccc2)CC1` (stereo not shown) [ifenprodil], the “block of mGluR5-SIC by ifenprodil” value in the assay on NMDA receptors is on record as “blocked”.

`Cc1cccc(C#Cc2ccccc2)n1` [MPEP, 2-Methyl-6-(phenylethynyl)pyridine]: the “block of mGluR5-SIC by MPEP” value with mGluR5 [1] was “blocked”.

Regarding “mGluR5(T1123A, S1126A): mutant that prevents phosphorylation at both sites”, the “GST-Pin1 binding to full-length mGluR5” value in the assay on GST-Pin1 is given as “did not bind”.

As to `COC(=O)[C@H]1[C@@H](OC(=O)c2ccccc2)C[C@@H]2CC[C@H]1N2C` [cocaine], in assay [2] (acute, i.p., 10 or 30 mg/kg), the “acute locomotor response, Grm5AA/AA mice” value is given as “increased locomotor response to acute cocaine” and the “acute locomotor response, Grm5TS/AAPin1+/− double heterozygotes” value is listed as “WT-levels of activity in response to acute cocaine”. In assay [2] (setting [10]), the “motor sensitization, Grm5AA/AA mice” value was “markedly reduced sensitization”; the “motor sensitization, Grm5TS/AAPin1+/− double heterozygotes” value is “reduced motor sensitization”; the “motor sensitization, Homer1a−/− mice” value was “profound deficit of cocaine motor sensitization”. Also, the “acute locomotor response, Homer1a−/− mice” value in [2] (initial dose, i.p. 10 or 30 mg/kg) is “WT-like response to the initial dose of cocaine”. Also, the “mGluR5 phosphorylation, WT and Homer triple knockout” value in the assay with mGluR5 [3] (10 mg/kg, i.p., 30 min, WT n = 6, Homer1−/−Homer2−/−Homer3−/− n = 7, versus saline) was “increased mGluR5 phosphorylation”. Besides, in the assay with mGluR5 [3] (setting [11]), the “Homer1a expression in striatum” value is listed as “induces Homer1a expression”, the “mGluR5 Ser-1126 phosphorylation in striatum” value is given as “induces transient phosphorylation” and the “mGluR5 Thr-1123 phosphorylation in striatum” value is “not Thr-1123”. Moreover, in the assay with mGluR5 [3] (cocaine administration, immunoselection of pT1123), the “double phosphorylation of mGluR5” value is “Double phosphorylation is induced”. Besides, the “Pin1 co-immunoprecipitation with mGluR5, Homer triple knockout” value with Pin1-mGluR5 (10 mg/kg, i.p., 30 min, Homer1−/−Homer2−/−Homer3−/− mice) is recorded as “increases after cocaine administration”. Further, the “increase of Pin1 binding, WT mice” value in the assay on Pin1-mGluR5 (acute cocaine, WT mice) is recorded as “did not detect an increase of Pin1 binding in WT mice”. Moreover, in [4] (setting [12]), the “dopamine response, Grm5AA/AA mice, 1st injection” value is “modest reduction” and the “glutamate response, Grm5AA/AA mice, 1st injection” value is given as “normal glutamate response”. Moreover, in assay [4] (10 mg/kg, WT n = 7, Grm5AA/AA n = 9, P < 0.05), the “glutamate and dopamine response, Grm5AA/AA mice, 4th injection” value is listed as “blunted neurotransmitter responsiveness”. Besides, in assay [4] (30 mg/kg, n = 8 each group), the “glutamate and dopamine response, Homer1a−/− mice, 1st injection” value was “normal glutamate and dopamine responses”. The “glutamate and dopamine response, Homer1a−/− mice, 4th injection” value in [4] (30 mg/kg, n = 8 each group, P < 0.05) is “blunted neurotransmitter responsiveness”.

Take `COC(=O)[C@@]1(O)C[C@H]2O[C@]1(C)n1c3ccccc3c3c4c(c5c6ccccc6n2c5c31)C(=O)NC4` [K252a]: the “block of BDNF potentiation of mGluR5-SIC by TrkB inhibitor” value in the assay with mGluR5-SIC [5] (100 nM) is “blocked BDNF potentiation”.

For the molecule `[Cl-].[K+]` [KCl], the Homer1a induction result on Homer1a [6] was “induced Homer1a”.

“Ac–Phe–Phe–pSer-Ψ[(Z)CH=C]-Pro–Arg–NH2 [Pin1 peptide mimic inhibitor]”: the “effect of Pin1 peptide on BDNF potentiation of mGluR5-SIC” value in the assay on mGluR5-SIC [5] is on record as “blocked”.

Take `Oc1cc2c(cc1O)C(c1ccccc1)CNCC2` (stereo not shown) [SKF38393]: the “mGluR5-SIC potentiation, D1R-GFP neurons” value in the assay on mGluR5-SIC [7] (SKF38393 1 μM after KCl pretreatment, D1-GFP, n = 8, p < 0.001) was “robust and consistent potentiation”. Moreover, the “mGluR5-SIC potentiation, D2-GFP neurons” value with mGluR5-SIC [7] (SKF38393 1 μM after KCl pretreatment, D2-GFP, n = 10) is “not D2 receptor-expressing neurons”. In addition, the “mGluR5-SIC potentiation, Homer triple knockout neurons” value in the assay with mGluR5-SIC [7] (SKF38393 1 μM, bath, Homer1−/−Homer2−/−Homer3−/− neurons) is on record as “potentiated”. In the assay with mGluR5-SIC [7] (SKF38393 1 μM, Homer1−/−Homer2−/−Homer3−/− neurons, p < 0.005), the “neurons with potentiation of mGluR5-SIC” value is 6 of 13 neurons. The “depotentiation, pretreatment, WT slices” value in assay [8] (0.5 hrs before HFS, n = 6 and n = 8) was “prevented depotentiation”. The “depotentiation, pretreatment, Homer1a−/− slices” value in assay [8] (0.5 hrs before HFS, n = 10) is listed as “failed to block depotentiation”. In addition, in [8] (0.5 hrs before HFS, n = 12), the “depotentiation, pretreatment, Grm5AA/AA slices” value is on record as “failed to block depotentiation”. Moreover, the “depotentiation, acute, WT slices” value in assay [8] (beginning 25 min after HFS, n = 4) is recorded as “did not block depotentiation”. Moreover, the “depotentiation, acute, Grm5R/R slices” value in [8] (beginning 25 min after HFS, n = 6) is recorded as “did block depotentiation”.

For `N#CC(=C(/N)Sc1ccccc1N)/C(C#N)=C(/N)Sc1ccccc1N` [UO126], the “block of BDNF potentiation of mGluR5-SIC by MEK inhibitor” value with mGluR5-SIC [5] (20 μM) is “blocked BDNF potentiation”.

Regarding “Ac-FY[pS]PR-NH2 [Pin1 control peptide mimic]”, the “effect of Pin1 peptide on BDNF potentiation of mGluR5-SIC” value with mGluR5-SIC [5] was “not by Pin1 control peptide mimic”.

“mGluR5(S1126A): mutant that prevents phosphorylation at S1126”: the “GST-Pin1 binding to full-length mGluR5” value in the assay with GST-Pin1 was “bound”.

As to “mGluR5(T1123A): mutant that prevents phosphorylation at T1123”, in the assay on GST-Pin1, the “GST-Pin1 binding to full-length mGluR5” value is reported as “bound”.

Consider “mGluR5-pS: mGluR5 peptide phosphorylated at S^1126 in vitro (KELVALTPP[pS]PFRD)”, for which, in the assay with Pin1, the “Pin1 catalysis of pS1126-P bond in the presence of equimolar Homer1a” value was “Pin1 was able to catalyze isomerization of pS^1126-P bond”. In addition, the “increase in Homer1a affinity on S1126 phosphorylation” value with Homer1a [9] is given as over 10 fold.

Regarding `N[C@@H](CCCP(=O)(O)O)C(=O)O` [APV], in the assay with NMDA receptors (50 μM), the “block of mGluR5-SIC by APV” value was “blocked”.

Turning to “WT mGluR5: full-length mGluR5 expressed in HEK293 cells”, the “GST-Pin1 binding to full-length mGluR5” value in the assay on GST-Pin1 is on record as “bound”.

As to `C[C@]12N[C@H](Cc3ccccc31)c1ccccc12` [MK-801], in the assay on NMDA receptors (in the recording pipette), the “block of mGluR-SIC by MK-801” value is recorded as “Blockade”.

For `O=C(O)[C@@H]1[C@H](C(=O)O)NCCN1C(=O)c1ccc2c(ccc3ccccc32)c1` [PPDA], the “block of mGluR5-SIC by PPDA” value in the assay on NMDA receptors (0.2 μM) is recorded as “blocked”.
